Values joined by “and” are separate entries in the source; they are usually repeats but may differ in a detail not shown here. Equal values may be shown once. Read-outs that look alike come from different tables or passages of the source.
How the values were obtained:
[1] = target: T1, SARS-CoV-2 3CL protease (Severe acute respiratory syndrome coronavirus 2, UniProt P0DTD1); test: biochemical; conditions: for Normalized SARS-CoV-2 3CL protease activity: 0.2 µM protease with 50 µM tested compound; for Normalized SARS-CoV-2 3CL protease activity / Protease activity (normalized): replicates; for IC50: read-out: IC50
[2] = target: T1, SARS-CoV-2 3CL protease; format: biochemical; set-up: Avg: unit not given here; conditions: for Inhibition at 10 µM: 10 µM compound; for Inhibition at 100 µM: 100 µM compound; for IC50 / LogIC50: Figure S1 and S2
[3] = Conc 10 µM, mean response (inhibition) of dose-response curve
[4] = Conc 15 µM, mean response (inhibition) of dose-response curve
[5] = Conc 20 µM, mean response (inhibition) of dose-response curve
[6] = Conc 50 µM, mean response (inhibition) of dose-response curve
[7] = Conc 100 µM, mean response (inhibition) of dose-response curve
[8] = Conc 200 µM, mean response (inhibition) of dose-response curve
[9] = dose-response curve of fragment hit
[10] = Conc 10 µM, average response of dose-response curve
[11] = Conc 15 µM, average response of dose-response curve
[12] = Conc 20 µM, average response of dose-response curve
[13] = Conc 50 µM, average response of dose-response curve
[14] = Conc 100 µM, average response of dose-response curve
[15] = Conc 200 µM, average response of dose-response curve
[16] = dose-response retest of fragment hits

## CS(=O)(=O)c1ncccc1C#N [NT-1-24]
[1]
  Normalized SARS-CoV-2 3CL protease activity: 0.9913 and 0.611 and 0.8892

## O=S(=O)(NCc1ccccc1)c1ccccc1 [AZVIII-44D]
[1]
  Normalized SARS-CoV-2 3CL protease activity: 1.234 and 1.326 and 1.299
[1]; 200 nM protease
  IC50: > 50 µM

## O=S(=O)(NCc1ccncn1)c1cccnc1 [AZVIII-49C]
[1]
  Normalized SARS-CoV-2 3CL protease activity: 1.015 and 1.0173 and 1.005
[1]; 200 nM protease
  IC50: > 50 µM

## CC(C)C[C@H](NC(=O)OC(C)(C)C)C(=O)N[C@H](CO)C[C@@H]1CCNC1=O [AZVIII-37A]
[1]
  Normalized SARS-CoV-2 3CL protease activity: 0.8312 and 1.007 and 1.0118
[1]; 200 nM protease
  IC50: > 50 µM
[1]; compound 4 analogs
  activity against SARS-CoV-2 3CL protease (in words): inactive

## Cn1cc(CNC(=O)c2cccnc2S)c(C(F)(F)F)n1 [Z1488388701]
[2]
  Inhibition at 10 µM: 2%
  Inhibition at 100 µM: 100%
[2]; Conc 10 µM
  Avg: 2.1
[2]; Conc 15 µM
  Avg: 19.8
[2]; Conc 20 µM
  Avg: 26.9
[2]; Conc 50 µM
  Avg: 96.9
[2]; Conc 100 µM
  Avg: 107.8
[2]; Conc 200 µM
  Avg: 105
[2]; dose-response curve fit
  IC50: 25.7 µM
[2]; log of IC50 (µM), dose-response curve fit
  LogIC50: 1.41

## CN(c1ccc(C(=O)CCl)cc1)S(C)(=O)=O [Z57982062]
[2]
  Inhibition at 10 µM: 47%
  Inhibition at 100 µM: 94%
[2]; [3]
  Avg: 47.1
[2]; [4]
  Avg: 48.1
[2]; [5]
  Avg: 62
[2]; [6]
  Avg: 79.8
[2]; [7]
  Avg: 93.6
[2]; [8]
  Avg: 99.3
[2]; [9]
  IC50: 13.5 µM
[2]; log10 of IC50 in µM
  LogIC50: 1.131

## O=C(CCl)c1ccc2c(c1)CCN(C(=O)C(F)(F)F)C2 [Z1723943157]
[2]
  Inhibition at 10 µM: 42%
  Inhibition at 100 µM: 81%
[2]; [10]
  Avg: 42.1
[2]; [11]
  Avg: 47.7
[2]; [12]
  Avg: 60.7
[2]; [13]
  Avg: 76.3
[2]; [14]
  Avg: 81
[2]; [15]
  Avg: 92.3
[2]; [16]
  IC50: 14.4 µM
[2]; log of IC50 in µM
  LogIC50: 1.159

## COc1ccc(S(=O)(=O)N(CC=O)Cc2ccccc2)cc1 [AZVIII-57G]
[1]
  Normalized SARS-CoV-2 3CL protease activity: 1.117 (2×) and 1.175 (2×) and 1.168 (2×)
[1]; 200 nM protease
  IC50: > 50 µM

## O=C(NCCC1=CCOCC1)c1cccnc1S [Z1510476385]
[2]
  Inhibition at 10 µM: 0%
  Inhibition at 100 µM: 99%
[2]; [10]
  Avg: 0.1
[2]; [11]
  Avg: 16
[2]; [12]
  Avg: 18.7
[2]; [13]
  Avg: 80.4
[2]; [14]
  Avg: 98.6
[2]; [15]
  Avg: 100.4
[2]; [16]
  IC50: 31.3 µM
[2]; log of IC50 in µM
  LogIC50: 1.496

## O=C(CCl)COc1ccc(Cl)cc1 [Z3236282166]
[2]
  Inhibition at 10 µM: 48%
  Inhibition at 100 µM: 100%
[2]; [3]
  Avg: 47.7
[2]; [4]
  Avg: 63.9
[2]; [5]
  Avg: 86.8
[2]; [6]
  Avg: 98.6
[2]; [7]
  Avg: 103.3
[2]; [8]
  Avg: 106
[2]; [9]
  IC50: 11.5 µM
[2]; log10 of IC50 in µM
  LogIC50: 1.059

## CCOC(=O)C=CC(CC1CCNC1=O)NC(=O)C(CC(C)C)NC(=O)OCc1ccccc1 (stereo not drawn) [AZVIII-41A]
[1]
  Normalized SARS-CoV-2 3CL protease activity: 0.05469 and 0.07659 and 0.08287
[1]; 200 nM protease
  IC90: > 50 µM
  IC50: > 50 µM
[1]; 200 nM protease, log10[nM] 0.404879
  Protease activity (normalized): 0.9534 and 1.001 and 1.046
[1]; 200 nM protease, log10[nM] 0.882
  Protease activity (normalized): 0.9954 and 1.035 and 1.1072
[1]; 200 nM protease, log10[nM] 1.35912
  Protease activity (normalized): 0.9788 and 1.032 and 1.063
[1]; 200 nM protease, log10[nM] 1.83624
  Protease activity (normalized): 0.8536 and 0.8662 and 0.892
[1]; 200 nM protease, log10[nM] 2.31336
  Protease activity (normalized): 0.8339 and 0.8695 and 0.9444
[1]; 200 nM protease, log10[nM] 2.79048
  Protease activity (normalized): 0.86 and 0.9004 and 0.9124
[1]; 200 nM protease, log10[nM] 3.26761
  Protease activity (normalized): 0.9439 and 0.9917 and 1.018
[1]; 200 nM protease, log10[nM] 3.74473
  Protease activity (normalized): 0.9845 and 1.046 and 1.061
[1]; 200 nM protease, log10[nM] 4.22185
  Protease activity (normalized): 0.8912 and 0.9195 and 0.9785
[1]; 200 nM protease, log10[nM] 4.69897
  Protease activity (normalized): 0.4548 and 0.5207 and 0.5344
[1]; 200 nM protease, log10[nM] -0.0722425
  Protease activity (normalized): 0.8359 and 0.8847 and 0.9024
[1]; 200 nM protease, log10[nM] -0.549364
  Protease activity (normalized): 0.7778 and 0.8128 and 0.8188

## O=CCN(Cc1ccccc1)S(=O)(=O)c1ccccc1 [AZVIII-57D]
[1]
  Normalized SARS-CoV-2 3CL protease activity: 1.196 and 1.186 and 0.9817
[1]; 200 nM protease
  IC50: > 50 µM

## O=C(NCCc1ccc(F)cc1)n1ccnc1 [Z235353843]
[2]
  Inhibition at 10 µM: 30%
  Inhibition at 100 µM: 96%
[2]; [10]
  Avg: 29.9
[2]; [11]
  Avg: 15.5
[2]; [12]
  Avg: 42.1
[2]; [13]
  Avg: 82.2
[2]; [14]
  Avg: 95.9
[2]; [15]
  Avg: 102.1
[2]; [16]
  IC50: 27.6 µM
[2]; log of IC50 in µM
  LogIC50: 1.441

Source: publication PMC8989888, “Development of optimized drug-like small molecule inhibitors of the SARS-CoV-2 3CL protease for treatment of COVID-19” (Nature Communications, 2022)
